Data on three compounds can be found in US6005007A, “Retinoids, methods for their production and use” (priority 1997, dated 1999).

pEC50, pKd: −log10 of the molar value.

One assay concerns the target T1, RXRγ (Mus musculus, UniProt P28705).
T1 construct: expressed in transfected cells; host or cells: CV-1 (African green monkey kidney fibroblasts)
T1 sequence (P28705 1-463): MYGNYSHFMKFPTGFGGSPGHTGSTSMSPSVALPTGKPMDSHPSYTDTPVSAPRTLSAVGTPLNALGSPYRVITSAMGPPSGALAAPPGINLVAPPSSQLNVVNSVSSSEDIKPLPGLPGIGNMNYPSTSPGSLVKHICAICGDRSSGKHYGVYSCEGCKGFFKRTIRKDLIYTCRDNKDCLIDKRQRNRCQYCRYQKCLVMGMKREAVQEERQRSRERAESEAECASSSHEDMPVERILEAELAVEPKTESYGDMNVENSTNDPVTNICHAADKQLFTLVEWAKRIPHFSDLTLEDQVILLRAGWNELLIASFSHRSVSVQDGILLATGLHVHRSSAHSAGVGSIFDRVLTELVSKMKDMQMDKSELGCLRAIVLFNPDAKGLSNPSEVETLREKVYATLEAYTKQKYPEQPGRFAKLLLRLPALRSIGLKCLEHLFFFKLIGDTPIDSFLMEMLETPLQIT
Kind of assay: Receptor binding, RXRγ. Particulars: tritiated retinoid competition.

Another assay deals with RAR and RXR receptors. Kind of assay: Co-transfection assay, RAR and RXR subfamilies (summary in words). The format is cell-based. Particulars: CV-1 cells. On the procedure: Utilizing the "cis-trans" or "co-transfection" assay described by Evans et al., Science, 240:889-95 (May 13, 1988), the disclosure of which is herein incorporated by reference, the retinoid compounds of the present invention were tested and found to have strong, specific activity as either selective RXR agonists, or as pan-agonist activators of both RAR and RXR receptors. This assay is described in further detail in U.S. Pat. Nos. 4,981,784 and 5,071,773, the disclosures of which are incorporated herein by reference.
In the co-transfection assay, a cloned cDNA for an IR (e.g., human RARα, RARβ, RXRγ) under the control of a constitutive promoter (e.g., the SV 40 promoter) is introduced by transfection (a procedure to induce cells to take up foreign genes) into a background cell substantially devoid of endogenous IRs. This introduced gene directs the recipient cells to make the IR protein of interest. A second gene is also introduced (co-transfected) into the same cells in conjunction with the IR gene. This second gene, comprising the cDNA for a reporter protein, such as firefly luciferase (LUC), controlled by an appropriate hormone responsive promoter containing a hormone response element (HRE). This reporter plasmid functions as a reporter for the transcription-modulating activity of the target IR. Thus, the reporter acts as a surrogate for the products (mRNA then protein) normally expressed by a gene under control of the target receptor and its native hormone.
The co-transfection assay can detect small molecule agonists or antagonists of target IRs. Exposing the transfected cells to an agonist ligand compound increases reporter activity in the transfected cells. This activity can be conveniently measured, e.g., by increasing luciferase production, which reflects compound-dependent, IR-mediated increases in reporter transcription. […]. Increasing concentrations of a suspected antagonist will decrease the reporter signal (e.g., luciferase production). The co-transfection assay is therefore useful to detect both agonists and antagonists of specific IRs. […]

The next assay addresses T2, RARγ (Homo sapiens, UniProt P13631).
T2 sequence (P13631 1-454): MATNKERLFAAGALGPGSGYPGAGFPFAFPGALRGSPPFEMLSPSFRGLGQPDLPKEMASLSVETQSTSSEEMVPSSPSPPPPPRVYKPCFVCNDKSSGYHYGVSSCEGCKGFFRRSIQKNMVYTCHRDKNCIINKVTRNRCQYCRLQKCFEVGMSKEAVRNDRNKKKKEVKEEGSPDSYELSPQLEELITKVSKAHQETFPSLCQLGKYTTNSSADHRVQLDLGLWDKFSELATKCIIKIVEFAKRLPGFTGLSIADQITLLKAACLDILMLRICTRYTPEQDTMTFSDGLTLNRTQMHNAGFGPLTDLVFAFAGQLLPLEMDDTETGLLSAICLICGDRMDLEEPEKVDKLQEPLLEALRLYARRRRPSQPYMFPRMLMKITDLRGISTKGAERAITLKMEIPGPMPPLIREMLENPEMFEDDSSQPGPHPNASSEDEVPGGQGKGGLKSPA
Kind of assay: Receptor binding, RARγ. Particulars: tritiated retinoid competition.

For the next assay, the target named is T3, RARα (Homo sapiens, UniProt P10276).
T3 sequence (P10276 1-462): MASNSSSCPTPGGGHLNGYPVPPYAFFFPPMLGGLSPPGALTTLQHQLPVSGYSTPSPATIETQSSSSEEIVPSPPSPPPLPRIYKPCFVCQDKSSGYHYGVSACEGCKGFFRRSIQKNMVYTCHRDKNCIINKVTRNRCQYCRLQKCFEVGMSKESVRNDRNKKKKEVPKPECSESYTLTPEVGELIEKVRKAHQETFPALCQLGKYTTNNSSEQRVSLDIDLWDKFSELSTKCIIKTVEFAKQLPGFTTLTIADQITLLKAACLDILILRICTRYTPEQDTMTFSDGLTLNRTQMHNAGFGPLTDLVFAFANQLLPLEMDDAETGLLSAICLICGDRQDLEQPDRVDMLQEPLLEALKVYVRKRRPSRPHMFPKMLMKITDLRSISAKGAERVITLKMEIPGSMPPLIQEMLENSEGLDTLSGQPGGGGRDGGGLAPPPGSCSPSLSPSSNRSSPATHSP
Kind of assay: Co-transfection assay, RARα agonist activity. The format is cell-based. Details: expressed in transfected cells; host or cells: CV-1 (African green monkey kidney fibroblasts). Conditions: CV-1 cells, luciferase reporter, read-out: RARα Pot.

As to `CC(/C=C/CC1(c2cc(C(C)(C)C)cc3c2CCC3(C)C)CC1)=C\C(=O)O` [Compound 107, (2E, 4E)-6-[1-(6-t-butyl-1,1-dimethyl-indan-4-yl)-cyclopropyl]-3-methyl hexadienoic acid], the pKd (commonly −log10 of the Kd, conventionally taken in molar units) at RXRγ was 7.66; at RARγ, less than 5.30. Also, the “RXR selectivity / pan-agonist activity” value in the assay with RAR and RXR receptors is reported as “extremely potent RXR selective compounds”. At RARα, the pEC50 is less than 5.00.
On the same counts, the results for `CC(/C=C/CC1(c2ccc3c(c2)C(C)(C)CCC3(C)C)CCCC1)=C\C(=O)O` [Compound 108, (2E, 4E)-6-[(5,5,8,8-Tetramethyl-5,6,7,8-tetrahydronaphtha-len-2-yl)cyclopentane-1-yl]-3-methyl hexadienoic acid] are 6.89, less than 5.30, “extremely potent RXR selective compounds” and less than 5.00.
`CC(/C=C/CC1(c2ccc3c(c2)C(C)(C)CCC3(C)C)CC1)=C\C(=O)O` [Compound 101, (2E, 4E)-6-[1-(5,5,8,8-Tetramethyl-5,6,7,8-tetrahydronaphtha-len-2-yl)cyclopropanyl]-3-methyl hexadienoic acid]: the pKd on RXRγ is 8.10; on RARγ it was 6.26. Besides, in the assay on RAR and RXR receptors, the “RXR selectivity / pan-agonist activity” value is on record as “pan-agonists that display superior potency profiles to that of the known pan-agonist compound 9-cis retinoic acid”. Besides, on RARα, the pEC50 is 7.23.
